According to patent US12071488B2, “Method of sensitizing cancer cells to anti-cancer treatment” (TWO TO BIOTECH LTD., priority 2017, dated 2024):

B1: MPGHSRLLSILVSGLCVVGSSIGVLRRREQAERGSRRCAIAGEERAMLSPSPLPE TPFSPEKGAAFSPIYPRRK (protein, listed as Homo sapiens)
chain: MPGHSRLLSILVSGLCVVGSSIGVLRRREQAERGSRRCAIAGEERAMLSPSPLPETPFSPEKGAAFSPIYPRRK
notes: full length polypeptide of 74 amino acid residues described in WO 2009/083968

What was measured:
[1] = system: human TNBC tumors (MDA-MB-231); test: Relative tumor volume in nude mice inoculated with TNBC cells; type: in vivo; settings: MDA-MB-231 tumors; APC1 15 mg/kg, doxorubicin 3 mg/kg once a week; 5 weeks; control increased linearly
From the text: To this end, mice were inoculated with TNBC cells as detailed above, briefly 32 nude mice were inoculated subcutaneously with TNBC cells (MDA-MB-231, 8×10^6 cells per mouse).

[2] = system: human ovarian cancer cells (OV90); test: Relative tumor volume in nude mice inoculated with human ovarian cancer cells; type: in vivo; settings: OV90 tumors; APC1 15 mg/kg, doxorubicin 3 mg/kg once a week; 5 weeks; control increased linearly
Experimental: During the treatment period, each mouse was weighted, and the tumor size was measured by Digital caliper.
When the tumors exceeded a volume of 40 mm^3 or 50 mm^3 (for OV90 and Panc1, respectively), the mice were randomly divided into four groups of 8 mice each, as follows. A control group was treated with saline only, the APC1-treated group was treated three times a week with doses of APC1 at 15 mg/kg each, the doxorubicin and APC treated group was treated twice a week with doses of APC1 (at 15 mg/kg each) and once a week with doxorubicin (at 3 mg/kg) and the doxorubicin-treated group was treated with doxorubicin only, once a week at a dose of 3 mg/kg. These dosing protocols were repeated throughout the experiment, namely for 5 weeks.

[3] = system: leukemia and prostate cancer cells; settings: WO 2009/083968; cited from earlier work
tumor = settings: WO 2009/083968; cited from earlier work

Molecule | relative tumor volume [1] | relative tumor volume [2] | viability of leukemia and prostate cancer cells [3] | tumor growth in mice (tumor)
COc1cccc2c1C(=O)c1c(O)c3c(c(O)c1C2=O)C[C@@](O)(C(=O)CO)C[C@@H]3O[C@H]1C[C@H](N)[C@H](O)[C@H](C)O1 [doxorubicin, (7S,9S)-7-[(2R,4S,5S,6S)-4-amino-5-hydroxy-6-methyloxan-2-yl]oxy-6,9,11-trihydroxy-9-(2-hydroxyacetyl)-4-methoxy-8,10-dihydro-7H-tetracene-5,12-dione, reference compound] | moderate increase | modest increases | – | –
B1 | – | – | decrease in the viability | prevention of tumor growth
